In ChEMBL document CHEMBL3992531, “Identification of new pyrrolo[2,3-d]pyrimidines as Src tyrosine kinase inhibitors in vitro active against Glioblastoma” (Eur J Med Chem, 2017):
Calls of active or inactive are those of the source. The rule behind the calls is not given here.

How the values were obtained:
[1] = biological target: Tyrosine-protein kinase ABL1 (Homo sapiens, UniProt P00519); assay: Inhibition of Abl (unknown origin)
[2] = biological target: Mast/stem cell growth factor receptor Kit (Homo sapiens, UniProt P10721); assay: Inhibition of human recombinant GST-His6-tagged Kit C-terminal fragment (544 to 976 residues) using GGMEDIYFEFMGGKKK as substrate after 10 mins in presence of [gamma-33P]ATP by scintillation counting method
Sequence of Mast/stem cell growth factor receptor Kit (P10721 whole entry, the tested form may be a part): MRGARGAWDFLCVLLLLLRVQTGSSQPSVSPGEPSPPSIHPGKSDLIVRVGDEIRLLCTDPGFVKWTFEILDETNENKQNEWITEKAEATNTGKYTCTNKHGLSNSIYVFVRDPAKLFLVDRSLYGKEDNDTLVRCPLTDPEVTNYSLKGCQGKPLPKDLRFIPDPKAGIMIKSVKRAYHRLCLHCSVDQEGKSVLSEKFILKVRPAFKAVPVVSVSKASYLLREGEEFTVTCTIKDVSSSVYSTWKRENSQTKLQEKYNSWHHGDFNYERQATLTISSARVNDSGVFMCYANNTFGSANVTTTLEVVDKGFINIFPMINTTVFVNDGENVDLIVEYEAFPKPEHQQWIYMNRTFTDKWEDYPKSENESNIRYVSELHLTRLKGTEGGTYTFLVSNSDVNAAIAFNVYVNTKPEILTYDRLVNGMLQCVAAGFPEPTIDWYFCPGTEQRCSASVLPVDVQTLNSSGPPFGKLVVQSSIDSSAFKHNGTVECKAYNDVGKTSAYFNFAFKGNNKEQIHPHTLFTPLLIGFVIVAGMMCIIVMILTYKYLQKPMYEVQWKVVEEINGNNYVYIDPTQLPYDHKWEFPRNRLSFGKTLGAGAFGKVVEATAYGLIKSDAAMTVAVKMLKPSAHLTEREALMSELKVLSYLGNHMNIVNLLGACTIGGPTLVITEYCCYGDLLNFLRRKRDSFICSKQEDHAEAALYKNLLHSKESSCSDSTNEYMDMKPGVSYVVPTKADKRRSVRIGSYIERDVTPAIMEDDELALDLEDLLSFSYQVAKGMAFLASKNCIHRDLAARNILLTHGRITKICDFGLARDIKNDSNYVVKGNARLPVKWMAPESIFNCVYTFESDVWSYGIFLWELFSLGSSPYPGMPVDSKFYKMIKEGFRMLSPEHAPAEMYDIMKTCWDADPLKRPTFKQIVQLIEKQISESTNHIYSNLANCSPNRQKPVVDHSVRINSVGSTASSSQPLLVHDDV

[3] = biological target: Tyrosine-protein kinase Fyn (Homo sapiens, UniProt P06241); assay: Inhibition of human recombinant full length N-terminal His6-tagged Fyn expressed in baculovirus infected Sf21 cells using KVEKIGEGTYGVVYK as substrate after 10 mins in presence of [gamma-33P]ATP by scintillation counting method
Sequence of Tyrosine-protein kinase Fyn (P06241 whole entry): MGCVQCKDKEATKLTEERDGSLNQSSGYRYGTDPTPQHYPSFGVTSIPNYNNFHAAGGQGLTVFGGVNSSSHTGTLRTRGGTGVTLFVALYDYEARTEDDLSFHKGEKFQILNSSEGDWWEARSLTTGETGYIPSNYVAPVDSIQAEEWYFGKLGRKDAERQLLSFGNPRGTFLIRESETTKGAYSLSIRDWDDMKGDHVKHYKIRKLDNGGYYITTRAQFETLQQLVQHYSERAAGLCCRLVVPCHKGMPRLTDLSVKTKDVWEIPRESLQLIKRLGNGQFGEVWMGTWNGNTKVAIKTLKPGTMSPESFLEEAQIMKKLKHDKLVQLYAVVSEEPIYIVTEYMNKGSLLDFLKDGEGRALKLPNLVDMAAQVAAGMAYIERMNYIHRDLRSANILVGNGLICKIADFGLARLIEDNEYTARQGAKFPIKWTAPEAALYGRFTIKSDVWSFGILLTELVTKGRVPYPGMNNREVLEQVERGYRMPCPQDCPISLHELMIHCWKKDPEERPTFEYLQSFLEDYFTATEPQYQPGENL

[4] = tested on: Tyrosine-protein kinase ABL1 (Homo sapiens), P00519 [T315I]; assay: Inhibition of Abl T315I mutant (unknown origin)
[5] = biological target: T1, Receptor-type tyrosine-protein kinase FLT3 (Homo sapiens, UniProt P36888); assay: Inhibition of Flt3 (unknown origin) using KVEKIGEGTYGVVYK as substrate after 10 mins in presence of [gamma-33P]ATP by scintillation counting method
T1 sequence (P36888 whole entry): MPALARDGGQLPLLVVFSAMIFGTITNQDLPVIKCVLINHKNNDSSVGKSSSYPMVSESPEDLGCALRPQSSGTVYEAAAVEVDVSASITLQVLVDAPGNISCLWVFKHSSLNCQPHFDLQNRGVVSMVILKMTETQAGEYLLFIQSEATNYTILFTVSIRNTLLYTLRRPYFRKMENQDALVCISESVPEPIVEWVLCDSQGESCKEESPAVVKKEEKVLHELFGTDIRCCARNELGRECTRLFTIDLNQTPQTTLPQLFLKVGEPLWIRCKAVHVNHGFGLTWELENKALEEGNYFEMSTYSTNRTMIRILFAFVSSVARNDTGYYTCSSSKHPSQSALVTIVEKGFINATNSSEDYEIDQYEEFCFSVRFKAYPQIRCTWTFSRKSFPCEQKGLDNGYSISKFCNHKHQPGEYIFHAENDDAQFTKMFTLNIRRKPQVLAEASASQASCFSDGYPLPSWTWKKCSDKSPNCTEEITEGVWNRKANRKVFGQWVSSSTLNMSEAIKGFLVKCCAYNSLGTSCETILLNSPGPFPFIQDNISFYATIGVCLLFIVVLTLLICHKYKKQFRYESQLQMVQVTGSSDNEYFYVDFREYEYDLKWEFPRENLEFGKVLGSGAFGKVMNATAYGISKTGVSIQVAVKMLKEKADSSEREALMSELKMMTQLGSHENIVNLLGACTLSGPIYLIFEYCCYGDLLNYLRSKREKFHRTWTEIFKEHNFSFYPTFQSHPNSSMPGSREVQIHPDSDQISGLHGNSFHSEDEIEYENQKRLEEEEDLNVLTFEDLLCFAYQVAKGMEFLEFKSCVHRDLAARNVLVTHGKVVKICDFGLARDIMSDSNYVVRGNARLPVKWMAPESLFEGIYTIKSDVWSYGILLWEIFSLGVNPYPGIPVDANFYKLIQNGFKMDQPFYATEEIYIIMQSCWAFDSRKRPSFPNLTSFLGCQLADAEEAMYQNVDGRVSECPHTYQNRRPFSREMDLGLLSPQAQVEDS

[6] = biological target: Proto-oncogene tyrosine-protein kinase Src (Homo sapiens, UniProt P12931); assay: Inhibition of human recombinant full length N-terminal His6-tagged Src expressed in Sf21 cells using KVEKIGEGTYGVVYK as substrate after 10 mins in presence of [gamma-33P]ATP by scintillation counting method
Sequence of Proto-oncogene tyrosine-protein kinase Src (P12931 2-536 limits assumed): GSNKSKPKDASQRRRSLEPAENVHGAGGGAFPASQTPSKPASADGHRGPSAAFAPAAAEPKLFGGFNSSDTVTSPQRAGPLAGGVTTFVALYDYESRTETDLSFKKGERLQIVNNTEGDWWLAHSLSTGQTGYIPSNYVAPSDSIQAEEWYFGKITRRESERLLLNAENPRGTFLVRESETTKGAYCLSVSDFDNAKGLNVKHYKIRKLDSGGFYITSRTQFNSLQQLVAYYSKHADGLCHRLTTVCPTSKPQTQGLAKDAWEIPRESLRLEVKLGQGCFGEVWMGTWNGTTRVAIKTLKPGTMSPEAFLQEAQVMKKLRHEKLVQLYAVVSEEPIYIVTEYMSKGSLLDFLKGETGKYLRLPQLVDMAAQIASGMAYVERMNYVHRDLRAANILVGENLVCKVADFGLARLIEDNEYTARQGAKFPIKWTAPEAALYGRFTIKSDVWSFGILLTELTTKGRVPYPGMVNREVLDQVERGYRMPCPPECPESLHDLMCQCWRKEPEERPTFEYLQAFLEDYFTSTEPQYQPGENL

[7] = tested on: Epidermal growth factor receptor (Homo sapiens), P00533 [L861Q]; assay: Inhibition of human recombinant N-terminal GST-tagged EGFR (696 residue-end) L861Q mutant expressed in baculovirus infected Sf21 cells using angiotensin-2 as substrate after 10 mins in presence of [gamma-33P]ATP by scintillation counting method
Sequence of Epidermal growth factor receptor (Homo sapiens), P00533 [L861Q] (P00533 whole entry L861Q): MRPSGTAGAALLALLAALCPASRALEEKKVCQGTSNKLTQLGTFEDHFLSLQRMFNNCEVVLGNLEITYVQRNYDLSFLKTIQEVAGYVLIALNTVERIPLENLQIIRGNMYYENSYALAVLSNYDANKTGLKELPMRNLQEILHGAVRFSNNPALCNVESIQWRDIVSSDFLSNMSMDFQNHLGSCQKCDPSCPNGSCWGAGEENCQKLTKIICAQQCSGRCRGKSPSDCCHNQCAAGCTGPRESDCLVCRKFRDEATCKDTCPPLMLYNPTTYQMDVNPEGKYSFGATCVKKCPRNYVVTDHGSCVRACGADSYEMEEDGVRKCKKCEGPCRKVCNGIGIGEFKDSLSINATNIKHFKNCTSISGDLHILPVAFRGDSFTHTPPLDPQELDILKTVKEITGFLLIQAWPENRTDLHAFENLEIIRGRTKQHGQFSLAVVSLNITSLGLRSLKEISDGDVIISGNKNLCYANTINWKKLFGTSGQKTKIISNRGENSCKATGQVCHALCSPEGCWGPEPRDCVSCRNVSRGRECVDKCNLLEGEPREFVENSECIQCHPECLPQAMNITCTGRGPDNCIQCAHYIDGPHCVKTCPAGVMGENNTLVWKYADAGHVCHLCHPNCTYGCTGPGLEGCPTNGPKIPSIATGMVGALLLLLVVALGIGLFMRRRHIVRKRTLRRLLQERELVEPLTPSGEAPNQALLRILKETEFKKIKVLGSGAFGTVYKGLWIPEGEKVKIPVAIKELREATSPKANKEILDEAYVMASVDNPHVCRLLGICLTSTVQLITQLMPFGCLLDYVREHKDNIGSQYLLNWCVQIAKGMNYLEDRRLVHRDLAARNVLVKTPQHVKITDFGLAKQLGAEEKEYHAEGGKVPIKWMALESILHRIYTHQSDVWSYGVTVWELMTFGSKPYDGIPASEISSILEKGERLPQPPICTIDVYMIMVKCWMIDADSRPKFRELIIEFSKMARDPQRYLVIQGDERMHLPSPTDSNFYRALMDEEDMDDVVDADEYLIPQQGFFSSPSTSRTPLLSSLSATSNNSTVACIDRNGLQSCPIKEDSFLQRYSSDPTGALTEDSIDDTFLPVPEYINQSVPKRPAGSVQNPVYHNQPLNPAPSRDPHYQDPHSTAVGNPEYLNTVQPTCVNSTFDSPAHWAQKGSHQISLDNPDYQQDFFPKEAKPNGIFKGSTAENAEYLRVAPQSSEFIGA

U-87 MG = assay: Cytotoxicity against human U87MG cells assessed as decrease in cell viability after 72 hrs by coulter counter analysis; format: functional, cell-based, U-87MG ATCC

| Compound | IC50 [1] | IC50 [2] | IC50 ([3]; read-out: IC50) [µM] | inhibition [4] | IC50 [5] | Ki [6] [µM] | inhibition [7] | IC50 (U-87 MG) [µM] | IC50 ([1]; read-out: IC50) [µM] | IC50 ([5]; read-out: IC50) [µM] | IC50 [3] |
| --- | --- | --- | --- | --- | --- | --- | --- | --- | --- | --- | --- |
| CSc1nc(NCCc2ccccc2)c2ccn(Cc3ccc(F)cc3)c2n1 | Not Active | Not Active | 30.8 | inactive | Not Active | 0.8 | inactive | 13.3 | – | – | – |
| CSc1nc(NCc2ccccc2)c2ccn(Cc3ccc(F)cc3)c2n1 | – | Not Active | 43.2 | inactive | – | 0.5 | inactive | 7.1 | 70 | 60 | – |
| CSc1nc(N2CCCCC2)c2ccn(Cc3ccc(F)cc3)c2n1 | Not Active | Not Active | 57.1 | inactive | – | 2.5 | inactive | 50.7 | – | 61 | – |
| CSc1nc(N2CCOCC2)c2ccn(Cc3ccc(F)cc3)c2n1 | Not Active | Not Active | – | inactive | – | 4.7 | inactive | 20.3 | – | 61 | Not Active |
| CSc1nc(NCCc2ccc(Cl)cc2)c2ccn(Cc3ccc(F)cc3)c2n1 | Not Active | Not Active | 70.4 | inactive | – | 5 | inactive | 46.1 | – | 76 | – |
| CSc1nc(Nc2cccc(Cl)c2)c2ccn(CC(Cl)c3ccccc3)c2n1 (stereo not given) | Not Active | Not Active | 58.2 | inactive | – | 0.7 | inactive | 143 | – | 55 | – |
| CCCCNc1nc(SC)nc2c1ccn2Cc1ccc(F)cc1 | Not Active | Not Active | – | inactive | Not Active | 3 | inactive | 20.7 | – | – | Not Active |
| CSc1nc(NCc2ccccc2)c2ccn(CC(Cl)c3ccccc3)c2n1 (stereo not given) | Not Active | Not Active | 88.6 | inactive | – | 6 | inactive | 50.7 | – | 68 | – |
| CSc1nc(N2CCCC2)c2ccn(Cc3ccc(F)cc3)c2n1 | Not Active | Not Active | 76 | inactive | – | 2 | inactive | 51.8 | – | 64 | – |
| CSc1nc(Nc2ccccc2)c2ccn(CC(Cl)c3ccccc3)c2n1 (stereo not given) | Not Active | Not Active | 62 | inactive | – | 1.5 | inactive | 27.4 | – | 72 | – |
